Where a name gives a salt, the structure may show the parent alone.
Assays:
[1] = test system: Pseudomonas aeruginosa ATCC 27853; assay: Standard bacterial EPI assay: MIC of levofloxacin in the absence and presence of the EPI; format: cell-based; conditions: P. aeruginosa ATCC 27853
Experimental: (§1) MIC assays were conducted in accordance with Clinical and Laboratory Standards Institute (CLSI) guidelines for broth microdilution. A 96-well plate containing cation-adjusted Mueller-Hinton (CAMH broth with 2-fold serial dilution of compounds was inoculated with log-phase bacterial at 5×10^5 CFU/mL. The final volume in each well was 100 μL. Each compound was tested in duplicate. The microtiter plates were incubated in an aerobic environment for 18 hours at 37° C. Then the bacterial growth was tested by reading the plate with a VersaMax plate reader (Molecular Devices, Inc.) at 600 nm. The MIC was defined as the lowest compound concentration that inhibited 90% of bacteria growth.
The EPI assay for the purposes of these studies represents a MIC assay in which the MIC of the antibiotic against the bacteria is tested in the presence of an experimental efflux pump inhibitor (EPI). […] Using serial dilutions of the EPI, its enhancement of antibiotic activity was then evaluated. […]
The impact of Example 2 on the MIC values of two test antibiotics (levofloxacin and cefepime) against P. aeruginosa ATCC 27853 were evaluated using our standard EPI assay. […]
In our standard EPI assay, the MIC of the test antibiotic is determined in the absence and presence of sub-inhibitory concentrations of the EPI. […]

P. aeruginosa ATCC 27853 = assay: Intrinsic MIC assay (CLSI broth microdilution); format: cell-based; conditions: Pseudomonas aeruginosa, ATCC27853, compound alone
Experimental: as §1
The intrinsic MIC of the experimental EPIs was tested with the method described. The 2-fold serial dilution begins with 100 μg/mL of tested compound in the first column of the 96-well plates. The following Gram-negative bacterial strains were included in these assays: […]

Compound: NCCC[C@H](N)CNC(=O)c1[nH]c2cc(-c3ccc(F)cc3)ccc2c1C1CC1 [Example 2, (S)-3-cyclopropyl-N-(2,5-diaminopentyl)-6-(4-fluorophenyl)-1H-indole-2-carboxamide dihydrochloride]
- MIC of levofloxacin in the presence of the EPI ([1]; 6.25 μg/mL (½×MIC) of the EPI): 0.032 µg/mL
- fold reduction of the MIC of levofloxacin relative to the absence of EPI ([1]; 6.25 μg/mL of the EPI): 32 fold
- MIC (P. aeruginosa ATCC 27853): 12.5 µg/mL

From patent publication US11826357B2, “Bacterial efflux pump inhibitors” (RUTGERS, THE STATE UNIVERSITY OF NEW JERSEY, priority 2017, dated 2023)
